US20240417411A1, “COMPOUNDS AND METHODS FOR TREATMENT OF VIRAL INFECTIONS” (priority 2023, published 2024)
Where a name gives a salt, the structure may show the parent alone. Read-outs that look alike come from different tables or passages of the source.

Columns and labels:
SARS-CoV2-NLuc = experiment: microbe, parasite or virus in culture; format: cell-based, SARS Coronavirus 2; conditions: Severe acute respiratory syndrome coronavirus 2, 48 h, read-out: SARS-CoV2 EC50 (nM)
in vitro [1] = format: cell-based; conditions: human
Procedure: Example C: CC50 MT4 Cytotoxicity of the compounds was determined in uninfected cells using the cell viability reagent in a similar fashion as described before for other cell types ([…] et al., Antimicrob Agents Chemother. 2008,52(2):655-65). […] Cells were cultured for 4-5 days at 37° C. Following the incubation, the cells were allowed to equilibrate to 25° C., and cell viability was determined by adding Cell-Titer Glo viability reagent. The mixture was incubated for 10 min, and the luminescence signal was quantified using an Envision plate reader. Untreated cell and cells treated at 2 μM puromycin (Sigma, St. Louis, MO) serve as 100% and 0% cell viability control, respectively. The percent of cell viability was calculated for each tested compound concentration relative to the 0% and 100% controls and the CC50 value was determined by non-linear regression as a compound concentration reducing the cell viability by 50%.

in vitro [2] = conditions: human, plasma
RSV-Luc5 = experiment: microbe, parasite or virus in culture; format: cell-based; conditions: human respiratory syncytial virus, NHBE, 72 h, read-out: RSV NHBE EC50 (nM)
[3] = tested on: Caco-2 cells (clone C2BBe1); conditions: human
in vitro [4] = format: in vitro ADME; conditions: human, s9, pH 7.4
Procedure: Example D: GI S9 Stability […] The S9 metabolic reactions were initiated by the addition of the substrates to the S9 reaction mixture to a final concentration of 2 μM. […] Aliquots ([…]) of the diluted supernatant were analyzed on a Thermo Q-Exactive mass spectrometer as described below. Example F: Liquid Chromatography/Mass Spectroscopy Methods for S9 and Plasma Stability Quantification of test compounds, Reference Compound A (S9 stability assay nucleoside metabolite), and controls was performed by analyte/internal standard peak area ratio (PAR) values measured on a Thermo Q-Exactive mass spectrometer coupled to a Dionex UltiMate 3000 HPLC with a Leap Technologies HTC PAL autosampler. […] Mobile phase A consisted of 0.1% (v/v) formic acid in water. Mobile phase B consisted of 0.1% (v/v) formic acid in acetonitrile. Elution of analytes was achieved by a series of linear gradients of acetonitrile in water containing 0.10% (v/v) formic acid. The mass spectrometer was calibrated on a weekly basis and mass tolerance of 5 ppm was used.

Row | Compound | EC50 (SARS-CoV2-NLuc) [nM] | CC50 (in vitro [1]) [µM] | half-life at 2 μM (in vitro [2]) [min] | EC50 (RSV-Luc5) [nM] | Caco2 A to B ([3]; Caco-2) | Caco2 B to A ([3]; Caco-2) | half-life at 2 μM (in vitro [4]) [min] | half-life (in vitro [2]) [min] | Caco2 A to B ([3]; Caco-2, 2 h) | Caco2 B to A ([3]; Caco-2, 2 h)
1 | CC(C)OC(=O)OC[C@H]1O[C@@](C#N)(c2ccc3c(N)ncnn23)[C@@H]2OC(=O)OCCCCCCOC(=O)O[C@@H]21 [Compound C53, ((12aR,13R,15R,15aR)-15-(4-aminopyrrolo[2,1-f][1,2,4]triazin-7-yl)-15-cyano-2,11-dioxodecahydrofuro[3,4-d][1,3,6,8]tetraoxacyclotetradecin-13-yl)methyl isopropyl carbonate] | 9660 | > 50 | 317 | 1330 | 9.28 | 15.92 | 0.691 |  |  | 
2 | CC(C)OC(=O)OC[C@H]1O[C@@](C#N)(c2ccc3c(N)ncnn23)[C@@H]2OC(=O)CC(C)(C)CC(=O)O[C@@H]21 [Compound C3, ((7aR,8R,10R,10aR)-10-(4-aminopyrrolo[2,1-f][1,2,4]triazin-7-yl)-10-cyano-4,4-dimethyl-2,6-dioxooctahydro-2H-furo[3,4-b][1,4]dioxonin-8-yl)methyl isopropyl carbonate] | 12000 | > 50 | 1240 | > 50000 | 5.9 | 7.3 | 6 |  |  | 
3 | CC(C)OC(=O)OC[C@H]1O[C@@](C#N)(c2ccc3c(N)ncnn23)[C@@H]2OC(=O)CCCC(=O)O[C@@H]21 [Compound C2, ((7aR,8R,10R,10aR)-10-(4-aminopyrrolo[2,1-f][1,2,4]triazin-7-yl)-10-cyano-2,6-dioxooctahydro-2H-furo[3,4-b][1,4]dioxonin-8-yl)methyl isopropyl carbonate] | 9600 | > 50 | 7.8 | 3350 | 1.66 | 7.32 | 0.616 |  |  | 
4 | N#C[C@@]1(c2ccc3c(N)ncnn23)O[C@H](COC(=O)OC2CCOCC2)[C@H]2OC(=O)CCCC(=O)O[C@H]21 [Compound C16, ((7aR,8R,10R,10aR)-10-(4-aminopyrrolo[2,1-f][1,2,4]triazin-7-yl)-10-cyano-2,6-dioxooctahydro-2H-furo[3,4-b][1,4]dioxonin-8-yl)methyl (tetrahydro-2H-pyran-4-yl) carbonate] | 14900 | > 50 |  | 20000 | 0.68 | 5.08 | 0.605 | 14.1 |  | 
5 | CN1[C@@H]2CC[C@H]1C[C@@H](OC(=O)OC[C@H]1O[C@@](C#N)(c3ccc4c(N)ncnn34)[C@@H]3OC(=O)CCCC(=O)O[C@@H]31)C2 [Compound C30, ((7aR,8R,10R,10aR)-10-(4-aminopyrrolo[2,1-f][1,2,4]triazin-7-yl)-10-cyano-2,6-dioxooctahydro-2H-furo[3,4-b][1,4]dioxonin-8-yl)methyl ((1R,3s,5S)-8-methyl-8-azabicyclo[3.2.1]octan-3-yl) carbonate formate] | 42500 | > 50 | 24 | > 50000 |  |  | 0.575 |  | 0.02 | 0.42
6 | CC(C)OC(=O)OC[C@H]1O[C@@](C#N)(c2ccc3c(N)ncnn23)[C@@H]2OC(=O)OCCC=CCCOC(=O)O[C@@H]21 [Compound C52, ((12aR,13R,15R,15aR)-15-(4-aminopyrrolo[2,1-f][1,2,4]triazin-7-yl)-15-cyano-2,11-dioxo-4,5,8,9,12a,13,15,15a-octahydrofuro[3,4-d][1,3,6,8]tetraoxacyclotetradecin-13-yl)methyl isopropyl carbonate] | 7100 | > 50 |  | 1600 | 6.77 | 11.87 | 0.6 | 1580 |  | 
7 | COC(=O)[C@H]([C@@H](C)OC(=O)OC[C@H]1O[C@@](C#N)(c2ccc3c(N)ncnn23)[C@@H]2OC(=O)CCCC(=O)O[C@@H]21)N(C)C [Compound C31, (2S,3R)-methyl 3-(((((7aR,8R,10R,10aR)-10-(4-aminopyrrolo[2,1-f][1,2,4]triazin-7-yl)-10-cyano-2,6-dioxooctahydro-2H-furo[3,4-b][1,4]dioxonin-8yl)methoxy)carbonyl)oxy)-2-(dimethylamino)butanoate 2,2,2-trifluoroacetate] | 6060 | > 50 | 15.5 | 9190 | 0.49 | 5.62 | 0.57 |  |  | 
8 | CC1(C)CC(=O)O[C@H]2[C@@H](OC(=O)C1)[C@](C#N)(c1ccc3c(N)ncnn13)O[C@@H]2COC(=O)OC1CCOCC1 [Compound C33, ((7aR,8R,10R,10aR)-10-(4-aminopyrrolo[2,1-f][1,2,4]triazin-7-yl)-10-cyano-4,4-dimethyl-2,6-dioxooctahydro-2H-furo[3,4-b][1,4]dioxonin-8-yl)methyl (tetrahydro-2H-pyran-4-yl) carbonate] | > 50000 | > 50 |  | > 50000 | 0.41 | 3.17 | 29 | 609 |  | 
9 | COC(=O)[C@H]([C@@H](C)OC(=O)OC[C@H]1O[C@@](C#N)(c2ccc3c(N)ncnn23)[C@@H]2OC(=O)CC(C)(C)CC(=O)O[C@@H]21)N(C)C [Compound C48, (2S,3R)-methyl 3-(((((7aR,8R,10R,10aR)-10-(4-aminopyrrolo[2,1-f][1,2,4]triazin-7-yl)-10-cyano-4,4-dimethyl-2,6-dioxooctahydro-2H-furo[3,4-b][1,4]dioxonin-8-yl)methoxy)carbonyl)oxy)-2-(dimethylamino)butanoate] | > 50000 | > 50 | 20.3 | > 50000 | 0.22 | 1.81 | 29.5 |  |  | 
10 | CCOC(=O)OC[C@H]1O[C@@](C#N)(c2ccc3c(N)ncnn23)[C@@H]2OC(=O)CC(C)(C)CC(=O)O[C@@H]21 [Compound C14, ((7aR,8R,10R,10aR)-10-(4-aminopyrrolo[2,1-f][1,2,4]triazin-7-yl)-10-cyano-4,4-dimethyl-2,6-dioxooctahydro-2H-furo[3,4-b][1,4]dioxonin-8-yl)methyl ethyl carbonate] | > 50000 | > 50 | 27.1 | > 50000 | 4.27 | 8.55 | 4.03 |  |  | 
11 | CN1[C@@H]2CC[C@H]1C[C@@H](OC(=O)OC[C@H]1O[C@@](C#N)(c3ccc4c(N)ncnn34)[C@@H]3OC(=O)CC(C)(C)CC(=O)O[C@@H]31)C2 [Compound C47, ((7aR,8R,10R,10aR)-10-(4-aminopyrrolo[2,1-f][1,2,4]triazin-7-yl)-10-cyano-4,4-dimethyl-2,6-dioxooctahydro-2H-furo[3,4-b][1,4]dioxonin-8-yl)methyl ((1R,3s,5S)-8-methyl-8-azabicyclo[3.2.1]octan-3-yl) carbonate formate] | > 50000 | > 50 | 60.2 | > 50000 |  |  | 99.4 |  | 0.04 | 5.19
12 | CC(C)OC(=O)OC[C@H]1O[C@@](C#N)(c2ccc3c(N)ncnn23)[C@@H]2OC(=O)CN(C)CC(=O)O[C@@H]21 [Compound C4, ((7aR,8R,10R,10aR)-10-(4-aminopyrrolo[2,1-f][1,2,4]triazin-7-yl)-10-cyano-4-methyl-2,6-dioxooctahydro-2H-furo[3,4-b][1,4,7]dioxazonin-8-yl)methyl isopropyl carbonate] | 6730 | > 50 | 65.6 | 3120 | 0.023 | 2 | 0.694 |  |  | 
13 | CC1(C)CC(=O)O[C@H]2[C@@H](OC(=O)C1)[C@](C#N)(c1ccc3c(N)ncnn13)O[C@@H]2COC(=O)OC1CCOC1 (stereo partly drawn) [Compound C40, ((7aR,8R,10R,10aR)-10-(4-aminopyrrolo[2,1-f][1,2,4]triazin-7-yl)-10-cyano-4,4-dimethyl-2,6-dioxooctahydro-2H-furo[3,4-b][1,4]dioxonin-8-yl)methyl (tetrahydrofuran-3-yl) carbonate] | > 50000 | > 50 | 72.5 | > 50000 | 0.69 | 5.13 | 5.83 |  |  | 
